Structures are written as SMILES.

This assay deals with MMP-13CD (catalytic domain of collagenase-3) (Homo sapiens, UniProt P45452). The assay can be described thus: Thiopeptolide substrate hydrolysis inhibition assay, MMP-13CD. Format: biochemical. To be noted: Table I; thiopeptolide substrate, HEPES pH 7.0, 22° C.; read-out: MMP-13CD IC50. An excerpt: Thiopeptolide substrates show virtually no decomposition or hydrolysis at or below neutral pH in the absence of a matrix metalloproteinase enzyme.

As for `Cn1c(=O)c2cc(C(=O)OCc3ccccc3)sc2n(C)c1=O` [Example 127, 1,3-Dimethyl-2,4-dioxo-1,2,3,4-tetrahydro-thieno[2,3-d]pyrimidine-6-carboxylic acid benzyl ester], the IC50 amounted to 3900 nM.

Consider `Cn1c(=O)n(Cc2cccc(C(F)(F)F)c2)c(=O)c2cc(C(=O)OCc3ccccc3)sc21` [Example 110, 1-Methyl-2,4-dioxo-3-(3-trifluoromethyl-benzyl)-1,2,3,4-tetrahydro-thieno[2,3-d]pyrimidine-6-carboxylic acid benzyl ester], for which the IC50 is 420 nM.

With `COc1cc(CNC(=O)c2cc3c(=O)n(Cc4ccccc4)c(=O)n(C)c3s2)cc(OC)c1` [Example 333, 3-Benzyl-1-methyl-2,4-dioxo-1,2,3,4-tetrahydro-thieno[2,3-d]pyrimidine-6-carboxylic acid 3,5-dimethoxy-benzylamide], the IC50 is above 100000 nM.

For the molecule `CCn1c(=O)c2cc(C(=O)OCc3ccccc3)sc2n(C)c1=O` [Example 142, 3-Ethyl-1-methyl-2,4-dioxo-1,2,3,4-tetrahydro-thieno[2,3-d]pyrimidine-6-carboxylic acid benzyl ester], the IC50 amounted to 390 nM.

Regarding `C=C(C)Cn1c(=O)c2cc(C(=O)NCc3cccc(OC)c3)sc2n(C)c1=O` [Example 289], the IC50 amounted to 2700 nM.

`COc1ccc(CNC(=O)c2cc3c(=O)n(CCNS(=O)(=O)c4ccc(Cl)cc4)c(=O)n(C)c3s2)cc1` [Example 231, 3-[2-(4-Chloro-benzenesulfonylamino)-ethyl]-1-methyl-2,4-dioxo-1,2,3,4-tetrahydro-thieno[2,3-d]pyrimidine-6-carboxylic acid 4-methoxy-benzylamide]: the IC50 stood at 2900 nM.

On to `Cn1c(=O)n(Cc2ccccc2)c(=O)c2cc(C(=O)NCc3ccc(F)c(C(F)(F)F)c3)sc21` [Example 360, 3-Benzyl-1-methyl-2,4-dioxo-1,2,3,4-tetrahydro-thieno[2,3-d]pyrimidine-6-carboxylic acid 4-fluoro-3-trifluoromethyl-benzylamide], for which the IC50 stood at 270 nM.

With `COc1ccc(CNC(=O)c2cc3c(=O)n(CCS(=O)(=O)c4ccc(Cl)cc4)c(=O)n(C)c3s2)cc1` [Example 247, 3-[2-(4-Chloro-benzenesulfonyl)-ethyl]-1-methyl-2,4-dioxo-1,2,3,4-tetrahydro-thieno[2,3-d]pyrimidine-6-carboxylic acid 4-methoxy-benzylamide], the IC50 came out at 7200 nM.

As to `COc1cccc(CNC(=O)c2cc3c(=O)n(CCOc4ccc(F)cc4)c(=O)n(C)c3s2)c1` [Example 236, 3-[2-(4-fluoro-phenoxy)-ethyl]-1-methyl-2,4-dioxo-1,2,3,4-tetrahydro-thieno[2,3-d]pyrimidine-6-carboxylic acid 3-methoxy-benzylamide], the IC50 is 49.5 nM.

As for `O=C(OCc1ccc2c(c1)OCO2)c1cc2c(=O)n(Cc3ccccc3)c(=O)[nH]c2s1` [Example 10, 3-Benzyl-2,4-dioxo-1,2,3,4-tetrahydro-thieno[2,3-d]pyrimidine-6-carboxylic acid 1,3-benzodioxol-5-ylmethyl ester], the IC50 is 68 nM.

On to `COc1cccc(CNC(=O)c2cc3c(=O)n(Cc4ccc(C5(C(=O)O)CC5)cc4)c(=O)n(C)c3s2)c1` [Example 94, 1-{4-[6-(3-Methoxy-benzylcarbamoyl)-1-methyl-2,4-dioxo-1,4-dihydro-2H-thieno[2,3-d]pyrimidin-3-ylmethyl]-phenyl}-cyclopropanecarboxylic acid], for which the IC50 was 5.35 nM.

Take `Cn1c(=O)n(Cc2ccccc2)c(=O)c2cc(C(=O)OCc3cccnc3)sc21` [Example 163, 3-Benzyl-1-methyl-2,4-dioxo-1,2,3,4-tetrahydro-thieno[2,3-d]pyrimidine-6-carboxylic acid pyridin-3-ylmethyl ester]: the IC50 worked out at 16 nM.

Take `CC(C)c1ccc(COC(=O)c2cc3c(=O)n(Cc4ccccc4)c(=O)n(C)c3s2)cc1` [Example 154, 3-Benzyl-1-methyl-2,4-dioxo-1,2,3,4-tetrahydro-thieno[2,3-d]pyrimidine-6-carboxylic acid 4-isopropyl-benzyl ester]: the IC50 was 32000 nM.

`Cn1c(=O)n(Cc2ccccc2)c(=O)c2cc(C(=O)OCc3cc4ccccc4o3)sc21` [Example 48, 3-Benzyl-1-methyl-2,4-dioxo-1,2,3,4-tetrahydro-thieno[2,3-d]pyrimidine-6-carboxylic acid benzofuran-2-ylmethyl ester]: the IC50 is 1450 nM.

For the molecule `Cn1c(=O)n(Cc2ccccc2)c(=O)c2cc(C(=O)NCCc3cccc(C(F)(F)F)c3)sc21` [Example 349, 3-Benzyl-1-methyl-2,4-dioxo-1,2,3,4-tetrahydro-thieno[2,3-d]pyrimidine-6-carboxylic acid[2-(3-trifluoromethyl-phenyl)-ethyl]-amide], the IC50 was above 100000 nM.

With `Cn1c(=O)n(Cc2ccc(OC(F)(F)F)cc2)c(=O)c2cc(C(=O)OCc3ccccc3)sc21` [Example 311, 1-Methyl-2,4-dioxo-3-(4-trifluoromethoxy-benzyl)-1,2,3,4-tetrahydro-thieno[2,3-d]pyrimidine-6-carboxylic acid benzyl ester], the IC50 was found to be 84.5 nM.

Take `Cn1c(=O)n(Cc2ccccc2)c(=O)c2cc(C(=O)OCc3ccccc3C(F)(F)F)sc21` [Example 169, 3-Benzyl-1-methyl-2,4-dioxo-1,2,3,4-tetrahydro-thieno[2,3-d]pyrimidine-6-carboxylic acid 2-trifluoromethyl-benzyl ester]: the IC50 stood at 30000 nM.

For `Cc1c(C(=O)OCc2ccccc2)sc2[nH]c(=O)n(Cc3ccc(Cl)c(Cl)c3)c(=O)c12` [Example 310, 3-(3,4-Dichloro-benzyl)-5-methyl-2,4-dioxo-1,2,3,4-tetrahydro-thieno[2,3-d]pyrimidine-6-carboxylic acid benzyl ester], the IC50 was found to be 30000 nM.

As for `Cn1c(=O)n(Cc2ccccc2)c(=O)c2cc(C(=O)OCc3ccc(Cl)c(Cl)c3)sc21` [Example 204, 3-Benzyl-1-methyl-2,4-dioxo-1,2,3,4-tetrahydro-thieno[2,3-d]pyrimidine-6-carboxylic acid 3,4-dichloro-benzyl ester], the IC50 came out at 72 nM.

Regarding `COc1ccccc1CCNC(=O)c1cc2c(=O)n(Cc3ccccc3)c(=O)n(C)c2s1` [Example 348, 3-Benzyl-1-methyl-2,4-dioxo-1,2,3,4-tetrahydro-thieno[2,3-d]pyrimidine-6-carboxylic acid[2-(2-methoxy-phenyl)-ethyl]-amide], the IC50 came out at 30000 nM.

For `Cc1cc(Cn2c(=O)c3cc(C(=O)NCc4cccc(O)c4)sc3n(C)c2=O)ccc1C(=O)O` [Example 250, 4-[6-(3-hydroxy-benzylcarbamoyl)-1-methyl-2,4-dioxo-1,4-dihydro-2H-thieno[2,3-d]pyrimidin-3-ylmethyl]-2-methyl-benzoic acid], the IC50 worked out at 7.65 nM.

As to `Cn1c(=O)n(Cc2ccc(C(=O)O)cc2)c(=O)c2cc(C(=O)NCc3ccc(S(N)(=O)=O)cc3)sc21` [Example 59, 4-[1-Methyl-2,4-dioxo-6-(4-sulfamoyl-benzylcarbamoyl)-1,4-dihydro-2H-thieno[2,3-d]pyrimidin-3-ylmethyl]-benzoic acid], the IC50 worked out at 2000 nM.

With `Cn1c(=O)n(Cc2ccccc2)c(=O)c2cc(C(=O)NCc3cc(Cl)cc(Cl)c3)sc21` [Example 352, 3-Benzyl-1-methyl-2,4-dioxo-1,2,3,4-tetrahydro-thieno[2,3-d]pyrimidine-6-carboxylic acid 3 ,5-dichloro-benzylamide], the IC50 was above 100000 nM.

Consider `COc1ccc(CNC(=O)c2cc3c(=O)n(Cc4ccc(C(=O)O)cc4)c(=O)n(C)c3s2)cc1` [Example 52, 4-[6-(4-Methoxy-benzylcarbamoyl)-1-methyl-2,4-dioxo-1,4-dihydro-2H-thieno[2,3-d]pyrimidin-3-ylmethyl]-benzoic acid], for which the IC50 was determined as 3.95 nM.

For `CC(NC(=O)c1cc2c(=O)n(Cc3ccccc3)c(=O)n(C)c2s1)c1ccccc1` (stereo not shown) [Example 358, 3-Benzyl-1-methyl-2,4-dioxo-1,2,3,4-tetrahydro-thieno[2,3-d]pyrimidine-6-carboxylic acid (1-phenyl-ethyl)-amide], the IC50 was above 100000 nM.

On to `Cn1c(=O)n(Cc2ccc(C(=O)O)cc2)c(=O)c2cc(C(=O)NCCc3ccncc3)sc21` [Example 82, 4-[1-Methyl-2,4-dioxo-6-(2-pyridin-4-yl-ethylcarbamoyl)-1,4-dihydro-2H-thieno[2,3-d]pyrimidin-3-ylmethyl]-benzoic acid], for which the IC50 was determined as 3700 nM.

Regarding `Cn1c(=O)n(CCOc2ccccc2)c(=O)c2cc(C(=O)OCc3ccccc3)sc21` [Example 133, 1-Methyl-2,4-dioxo-3-(2-phenoxy-ethyl)-1,2,3,4-tetrahydro-thieno[2,3-d]pyrimidine-6-carboxylic acid benzyl ester], the IC50 was found to be 74 nM.

Consider `COc1cccc(CNC(=O)c2cc3c(=O)n(Cc4ccc(C(=O)OCCN(C)C)cc4)c(=O)n(C)c3s2)c1` [Example 68, 4-[6-(3-Methoxy-benzylcarbamoyl)-1-methyl-2,4-dioxo-1,4-dihydro-2H-thieno[2,3-d]pyrimidin-3-ylmethyl]-benzoic acid 2-dimethylamino-ethyl ester], for which the IC50 was 63.5 nM.

As for `COc1cccc(CNC(=O)c2cc3c(=O)n(Cc4ccc(OC(C)(C)C(=O)O)cc4)c(=O)n(C)c3s2)c1` [Example 96, 2-{4-[6-(3-Methoxy-benzylcarbamoyl)-1-methyl-2,4-dioxo-1,4-dihydro-2H-thieno[2,3-d]pyrimidin-3-ylmethyl]-phenoxy}-2-methyl-propionic acid], the IC50 was determined as 18.5 nM.

For `Cc1cc(Cn2c(=O)c3cc(C(N)=O)sc3n(C)c2=O)ccc1C(=O)O` [Example 249], the IC50 amounted to 7800 nM.

With `COc1ccc(CNC(=O)c2cc3c(=O)n(Cc4ccc(S(=O)(=O)N(C)C)cc4)c(=O)n(C)c3s2)cc1` [Example 62, 3-(4-Dimethylsulfamoyl-benzyl)-1-methyl-2,4-dioxo-1,2,3,4-tetrahydro-thieno[2,3-d]pyrimidine-6-carboxylic acid 4-methoxy-benzylamide], the IC50 is 53.5 nM.
